In publication PMC10610289, “Novel Baicalein-Derived Inhibitors of Plasmodium falciparum” (Pathogens, 2023):
“Also recorded” adds a separate entry of the source. Read-outs that look alike come from different tables or passages of the source.

Columns and labels:
[1] = test system: Plasmodium falciparum 3D7 (chloroquine-sensitive); assay: Antimalarial assay (IC50 determination), asexual blood stage, SYBR green; assay type: cell-based; conditions: Plasmodium falciparum
Experimental: (§1) Parasite lines used in the study were P. falciparum 3D7 (Pf3D7 Chloroquine-sensitive) and Plasmodium falciparum K1 (PfK1 Chloroquine-resistant) sourced from the Malaria Research and Reference Reagent Resource Center (MR4), ATCC, Manassas, VA, USA. FNDR-10132 was tested against a cross-resistance panel at Swiss TPH, Allschwil, Switzerland.
(§2) As per the modified protocol stated by Trager and Jensen, 1976, Plasmodium falciparum parasite lines (Pf3D7 and PfK1) were cultured. Plasmodium strains were maintained in RPMI-1640 medium at 3–5% hematocrit supplemented with 0.2% w/v glucose, 0.5% w/v AlbuMaxII, 0.2% w/v NaHCO3, and 30 μg/mL gentamycin, and, additionally, 15 μM hypoxanthine was added and incubated at 37 °C with 5% O2, 5% CO2, and 90% N2. After 24 h, the medium was changed. After attaining high parasitemia (6–8% mature stage parasite), the culture was sub-passaged with fresh human RBCs.
(§3) All tested compounds were dissolved in a DMSO solvent and a prepared stock solution of 10 mM. The reference drug, Chloroquine diphosphate, was dissolved in CRPMI. Working solutions were made from stock solution after diluting in a CRPMI medium during the experiment. The maximum concentration of DMSO used in this study was <1%. It had no parasiticidal effect.
(§4) The P. falciparum (0.8–1% parasitemia and 1% hematocrit) synchronous culture was exposed for 72 h (at 37 °C, 5% O2, 5% CO2, and 90% N2) to the serially diluted compound in 96-well plates. A total of 100 µL of RBCs lytic buffer (5 mM EDTA, 20 mM Tris pH 7.5, 0.08% Triton X-100, and 0.008% Saponin) containing the SYBR green 1-X final concentration was distributed to each well and incubated for one hour at room temp in the dark. The plates were read under a fluorescence reader at an excitation of 485 ± 20 nm and emission of 535 ± 25 nm. The IC50 values were calculated based on the DNA content of the parasite relative to its control. An inhibitory concentration of 50% (IC50) was determined using the MS-EXEL template.

[2] = test system: Plasmodium falciparum K1 (chloroquine-resistant); assay: as above; assay type: cell-based; conditions: read-out: ABS Assay Pf (K1)
Experimental: as §1, §2, §3, §4

[3] = test system: P. falciparum male gametocytes; assay: P. falciparum dual gamete formation assay (PfDGFA), male; assay type: cell-based; conditions: Plasmodium falciparum, read-out: DGF Assay—Inhibition, male
Experimental: The FNDR-10132 was evaluated in a male and female gametocyte functional viability assay by following the procedure described in Ruecker et al..

Dd2 (wt) = assay: Cross-resistance panel, Dd2 wt; assay type: cell-based, Plasmodium falciparum; conditions: strain Dd2 wt
Experimental: as §1

[4] = test system: Dd2 DDD107498 (PfeEF2 Y186N); assay: Cross-resistance panel, Dd2 DDD107498; assay type: cell-based, Plasmodium falciparum
Experimental: as §1

[5] = test system: Dd2 390048 (Pfpi4k S743T); assay: Cross-resistance panel, Dd2 390048; assay type: cell-based, Plasmodium falciparum
Experimental: as §1

Dd2 DSM265 (Pfdhodh) = assay: Cross-resistance panel, Dd2 DSM265; assay type: cell-based, Plasmodium falciparum
Experimental: as §1

[6] = test system: Dd2 GNF156 (Pfcarl Ile1139Lys); assay: Cross-resistance panel, Dd2 GNF156; assay type: cell-based, Plasmodium falciparum
Experimental: as §1

[7] = test system: Dd2 ELQ300 (PfcytB Ile22Leu); assay: Cross-resistance panel, Dd2 ELQ300; assay type: cell-based, Plasmodium falciparum
Experimental: as §1

Plasma stability = assay type: in vitro ADME
From the text: (§5) Table 5 The compound FNDR-10132 progression profile. | column: FNDR-10132

THP-1 = assay: Cytotoxicity in THP-1; assay type: cell-based
From the text: as §5

Vero cells = assay: Cytotoxicity assay against Vero cell line; assay type: cell-based; conditions: 72 h, resazurin (CC50)
Experimental: Vero cells were initially washed with PBS and trypsinized, and a 1 × 10^5 cells/mL suspension was prepared. A total of 100 µL of a cell suspension was distributed to each well of the 96-well microtiter plates and allowed to adhere overnight. The next day, serial dilutions of selected test compounds were made in the plates and incubated for 72 h. After 72 h, a ten-microliter resazurin solution (12.5 mg/100 mL PBS) was added to each well. After 3 h, plates were read using a fluorescence reader (Biotek) at an excitation wavelength of 530 nm and an emission wavelength of 590 nm (Sperandeo and Brun, 2003). The MS-EXEL template determined the cytotoxic concentration (CC50) for selected compounds.

[8] = Body weight of mice during treatment; assay type: in vivo, Swiss mice; conditions: 100 mg/kg oral
From the text: One crucial aspect of evaluating potential malaria treatments is assessing their safety and tolerance in the host organism. In this regard, the present study closely monitored the body weights of the mice throughout the drug treatment.

CCCCCCc1ccc(-c2cc(=O)c3c(O)c(O)c(O)cc3o2)cc1 [FNDR-10132]
IC50 ([1]; 3D7, 72 h, P. falciparum 3D7, 72 h exposure, read-out: IC50): 60 nM
IC50 ([1]; 3D7, chloroquine-sensitive 3D7, read-out: ABS Assay Pf (3D7)): 60 nM
IC50 [2]: 177 nM
inhibition at 1 µM [3]: 1.6%
IC50 (Dd2 (wt); Plasmodium falciparum): 328 nM
Fold shift IC50 rel. Dd2 (Dd2 (wt)): 1.0
IC50 ([4]; Plasmodium falciparum, DD2): 211 nM
Fold shift IC50 rel. Dd2 ([4]; strain Dd2 DDD107498): 0.6
IC50 ([5]; Plasmodium falciparum, DD2): 290 nM
Fold shift IC50 rel. Dd2 ([5]; strain Dd2 390048): 0.9
IC50 (Dd2 DSM265 (Pfdhodh); Plasmodium falciparum): 260 nM
Fold shift IC50 rel. Dd2 (Dd2 DSM265 (Pfdhodh); strain Dd2 DSM265): 0.8
IC50 ([6]; Plasmodium falciparum, DD2): 292 nM
Fold shift IC50 rel. Dd2 ([6]; strain Dd2 GNF156): 0.9
IC50 ([7]; Plasmodium falciparum, DD2): 238 nM
Fold shift IC50 rel. Dd2 ([7]; strain Dd2 ELQ300): 0.7
Plasma Stability (Plasma stability; at 30 min): 87.61%
Plasma Stability (Plasma stability; at 45 min): 80.97%
Cytotoxicity THP-1 (THP-1): 90 µM
Cytotoxicity Vero Cell (Vero cells): 174 µM
Weight of Mice Day after the Last Dose of Treatment (Day 4) [8]: 27.5 gm
Weight of Mice at the Initiation of Treatment (Day 0) [8]: 25 gm
weight loss / tolerability (in words) [8]: no significant weight loss; also recorded: well-tolerated
Weight Gain ([8]; Day 0 to Day 4): 2.5 gm
